# Columns and labels:
# Type in all cases: cell-based
# Gal4 PPARδ = target: T1, Gal4 PPARδ (Homo sapiens, UniProt Q03181); assay: Gal4 PPARδ reporter functional assay in CV1 cells; conditions: examined up to 10 μM, luciferase reporter, 24 hours
# T1 construct: expressed in transfected cells; host or cells: CV1 (African green monkey kidney)
# T1 sequence (Q03181 211-439 limits assumed): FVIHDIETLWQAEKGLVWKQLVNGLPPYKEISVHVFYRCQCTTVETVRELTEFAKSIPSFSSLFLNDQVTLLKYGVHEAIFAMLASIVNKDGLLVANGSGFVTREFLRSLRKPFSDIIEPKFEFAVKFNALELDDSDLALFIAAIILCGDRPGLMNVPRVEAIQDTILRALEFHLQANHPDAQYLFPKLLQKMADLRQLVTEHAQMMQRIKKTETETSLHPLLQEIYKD
# Description: (§1) Gal4 PPARα, Gal4 PPARδ, and PPARγ reporter functional assays are also used to monitor the selectivity of exemplified compounds. CV1 cells, which are derived from the renal tissue of an African green monkey, are transfected with various receptor and reporter plasmids using Fugene. For the Gal4 PPARα and PPARδ assays, a reporter plasmid containing five tandem copies of the yeast transcription protein Gal4 response element, cloned upstream of a firefly luciferase gene driven by the major late promoter of adenovirus, is transfected together with a Simian Virus 40 (SV40) driven plasmid constitutively expressing a hybrid protein containing the Gal4 DNA binding domain (DBD), and either the PPARα or PPARδ ligand binding. For the PPARγ assay, plasmids encoding PPARγ and RXRα, both driven by a cytomegalovirus (CMV) promoter are transfected together with a plasmid containing luciferase reporter cDNA driven by the TK promoter and a receptor response element (2×PPRE). Cells are transfected in T225 cm^2 cell culture flasks in DMEM media with 5% charcoal-stripped FBS. […] After 24 hours incubation with compounds, cells are lysed and luciferase activity is determined as a measure of receptor activation by luminescence. […] The maximum percent stimulation is determined versus maximum stimulation obtained with 10 μM of an appropriate PPAR agonist reference compound. […]
# Gal4 PPARα = target: T2, Gal4 PPARα (Homo sapiens, UniProt Q07869); assay: Gal4 PPARα reporter functional assay in CV1 cells; conditions: examined up to 10 μM, luciferase reporter, 24 hours
# T2 construct: expressed in transfected cells; host or cells: CV1 (African green monkey kidney)
# T2 sequence (Q07869 239-466 limits assumed): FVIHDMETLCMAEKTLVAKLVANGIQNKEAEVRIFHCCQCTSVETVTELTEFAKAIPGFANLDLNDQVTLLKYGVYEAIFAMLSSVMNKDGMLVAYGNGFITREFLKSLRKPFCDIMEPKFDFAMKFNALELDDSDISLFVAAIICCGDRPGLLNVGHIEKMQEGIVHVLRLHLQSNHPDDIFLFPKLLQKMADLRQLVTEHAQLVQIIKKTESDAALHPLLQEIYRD
# Description: as §1
# human GPR40 = target: T3, human GPR40 (Homo sapiens, UniProt O14842); assay: Calcium Flux Primary Assay
# T3 construct: expressed in transfected cells; host or cells: HEK293
# Description: Calcium Flux Primary Assay
# HEK293 cells over expressing the human GPR40 cDNA maintained in Dulbecco's modified Eagle's medium with F12 medium in 3:1 ratio supplemented with 10% FBS and 800 μg/ml geneticin at 37° C. and 5% CO2 are employed for the study. Agonist assays are performed using a Calcium 4 Dye assay kit (Molecular Devices) in the presence (0.1%) or absence of fatty acid free BSA in the assay buffer (1×HBSS (Hank's Balanced Salt Solution) & 20 mM HEPES (4-(2-hydroxyethyl)-1-piperazineethanesulfonic acid). Receptor activation is measured as an increase in intracellular calcium using the Fluorometric Imaging Plate Reader (FLIPR). Maximum change in fluorescence over the base line is used to determine agonist response. EC50 (effective concentration at half the maximal response) value of the compound is calculated using Excel Fit software (version 4; IDBS) by plotting concentration vs relative fluorescence units (RFUs).
# [1] = system: primary rodent pancreatic islets of Langerhans; assay: GDIS assay in primary rodent pancreatic islets; conditions: male SD rat islets; different concentrations; compared to 11.2 mM glucose alone; 90 min
# Description: Because activation of GPR40 is known to result in insulin secretion which is dependent on high glucose concentrations, two separate assay systems (insulinoma cell line and primary rodent islets) are developed to further characterize compounds that are known to increase intracellular calcium in the GPR40 primary assay discussed above.
# GDIS assays using primary rodent pancreatic islets of Langerhans are also used to characterize exemplified compounds. Pancreatic islets are isolated from male SD (Sprague Dawley) rats by collagenase digestion and Histopaque density gradient separation. The islets are cultured overnight in RPMI-1640 medium with GlutaMAXn (stabilized, dipeptide form of L-glutamine (Invitrogen catalog #61870-010)) to facilitate recovery from the isolation process. Insulin secretion is determined by a 90 minute incubation in EBSS (Earle's Balances Salt Solution) buffer in a 48-well plate. Briefly, islets are first preincubated in EBSS with 2.8 mM glucose for 30 min and are then transferred to a 48-well plate (four islets/well) containing 150 μl 2.8 mM glucose and incubated with 150 μl of EBSS with 2.8 or 11.2 mM glucose in the presence or absence of test compounds for 90 minutes. The buffer is removed from the wells at the end of the incubation and assayed for insulin levels using the Rat Insulin ELISA kit (Mercodia). […]
# T3 sequence (O14842 whole entry): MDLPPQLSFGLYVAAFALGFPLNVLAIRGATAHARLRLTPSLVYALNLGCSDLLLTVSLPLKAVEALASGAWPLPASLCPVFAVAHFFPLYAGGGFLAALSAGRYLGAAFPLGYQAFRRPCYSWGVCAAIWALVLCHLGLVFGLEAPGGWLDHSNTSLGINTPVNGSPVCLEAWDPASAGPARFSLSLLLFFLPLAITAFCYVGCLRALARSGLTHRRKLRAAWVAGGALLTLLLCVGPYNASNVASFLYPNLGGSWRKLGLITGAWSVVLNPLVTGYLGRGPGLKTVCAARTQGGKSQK
smiles,measurement,setting,value
"CC#C[C@@H](CC(=O)O)c1ccc(OCc2ccc(CN3CCC4(C=Cc5ccccc54)CC3)s2)cc1 [Example 1, (3S)-3-[4-[[5-(Spiro[indene-1,4′-piperidine]-1′-ylmethyl)-2-thienyl]methoxy]phenyl]hex-4-ynoic acid]",functional activation of PPARδ,Gal4 PPARδ,No functional activation
same,functional activation of PPARα,Gal4 PPARα,No functional activation
same,EC50,"human GPR40; HEK293 cells over expressing human GPR40, intracellular calcium, FLIPR",114 nM
same,Percent efficacy,"human GPR40; maximal response compared to the natural ligand, linoleic acid",91+/−9%
same,increase in insulin,[1],2- to 4 fold

# — patent US8822486B2, “Spiropiperidine compounds” (Eli Lilly and Company, priority 2009, dated 2014)
